Source: the supplement of paper PMC10307832

How the values were obtained:
Experiment in all cases: relative viability (nuclei count vs DMSO), 5 days (fraction); higher = more cells survive
Masitinib + Navitoclax = compound: Cc1ccc(NC(=O)c2ccc(CN3CCN(C)CC3)cc2)cc1Nc1nc(-c2cccnc2)cs1 [Masitinib] + CC1(C)CCC(c2ccc(Cl)cc2)=C(CN2CCN(c3ccc(C(=O)NS(=O)(=O)c4ccc(N[C@H](CCN5CCOCC5)CSc5ccccc5)c(S(=O)(=O)C(F)(F)F)c4)cc3)CC2)C1 [Navitoclax] (partner 0.5 µM)
Procedure, shortened: (§1)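 The day after seeding in 1536-well plates, lung cancer cell lines were treated by pin tool with a single drug, or with a fixed anchor-drug dose together with five library-drug doses (not always all listed) in √10 steps. After 5 days, a combined fix-and-stain solution (final 0.05% Triton X-100, 1% formaldehyde, 1 ug/ml Hoechst) was added. Nuclei counted on 4× images gave relative viability as treated counts over vehicle counts, reported as the median of duplicate plates.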

[1] = compound: CC1=CC(=CC=C1)NC2=NC(=CS2)C3=CC=NC=C3 + COc1cc2c(Oc3ccc(NC(=O)C4(C(=O)Nc5ccc(F)cc5)CC4)cc3F)ccnc2cc1OCCCN1CCOCC1 [Foretinib] (partner 0.25 µM)
Procedure, shortened: as §1

Masitinib + Trametinib = compound: Cc1ccc(NC(=O)c2ccc(CN3CCN(C)CC3)cc2)cc1Nc1nc(-c2cccnc2)cs1 [Masitinib] + CC(=O)Nc1cccc(-n2c(=O)n(C3CC3)c(=O)c3c(Nc4ccc(I)cc4F)n(C)c(=O)c(C)c32)c1 [Trametinib] (partner 0.02 µM)
Procedure, shortened: as §1

[2] = compound: CC1=CC(=CC=C1)NC2=NC(=CS2)C3=CC=NC=C3 + O=C(CCCCCCC(=O)Nc1ccccc1)NO [Vorinostat] (partner 1 µM)
Procedure, shortened: as §1

Calu-6 showed a relative viability (Masitinib + Navitoclax; first compound 0.01 µM) of 0.836, a relative viability (Masitinib + Navitoclax; first compound 0.03162 µM) of 0.872 and a relative viability (Masitinib + Navitoclax; first compound 0.1 µM) of 0.89. For the same cell line, the relative viability (Masitinib + Navitoclax; first compound 0.3162 µM) was 0.821, the relative viability (Masitinib + Navitoclax; first compound 1 µM) was 0.904 and the relative viability ([1]; first compound 0.08 µM) was 0.712. It also gave a relative viability ([1]; first compound 0.253 µM) of 0.795, a relative viability ([1]; first compound 0.8 µM) of 0.727 and a relative viability ([1]; first compound 2.53 µM) of 0.768. For the same cell line, the relative viability ([1]; first compound 8 µM) was 0.768.

In the case of ChaGo-K-1, the relative viability (Masitinib + Navitoclax; first compound 0.01 µM) is reported as 1.36, the relative viability (Masitinib + Navitoclax; first compound 0.03162 µM) is reported as 0.979 and the relative viability (Masitinib + Navitoclax; first compound 0.1 µM) is reported as 1.31. For the same cell line, the relative viability (Masitinib + Navitoclax; first compound 0.3162 µM) was 1.1, the relative viability (Masitinib + Navitoclax; first compound 1 µM) was 0.839 and the relative viability (Masitinib + Trametinib; first compound 0.01 µM) was 0.972. It also gave a relative viability (Masitinib + Trametinib; first compound 0.03162 µM) of 0.852, a relative viability (Masitinib + Trametinib; first compound 0.1 µM) of 0.986 and a relative viability (Masitinib + Trametinib; first compound 0.3162 µM) of 0.909. It also gave a relative viability (Masitinib + Trametinib; first compound 1 µM) of 0.906, a relative viability ([2]; first compound 0.08 µM) of 0.681 and a relative viability ([2]; first compound 0.253 µM) of 0.735. For the same cell line, the relative viability ([2]; first compound 0.8 µM) was 0.734, the relative viability ([2]; first compound 2.53 µM) was 0.777 and the relative viability ([2]; first compound 8 µM) was 0.777. For the same cell line, the relative viability ([1]; first compound 0.08 µM) was 0.977, the relative viability ([1]; first compound 0.253 µM) was 0.938 and the relative viability ([1]; first compound 0.8 µM) was 0.931. It also gave a relative viability ([1]; first compound 2.53 µM) of 0.902 and a relative viability ([1]; first compound 8 µM) of 0.85.

With EBC-1 the relative viability (Masitinib + Navitoclax; first compound 0.01 µM) was 0.363, the relative viability (Masitinib + Navitoclax; first compound 0.03162 µM) was 0.397 and the relative viability (Masitinib + Navitoclax; first compound 0.1 µM) was 0.41. It also gave a relative viability (Masitinib + Navitoclax; first compound 0.3162 µM) of 0.385, a relative viability (Masitinib + Navitoclax; first compound 1 µM) of 0.494 and a relative viability ([1]; first compound 0.08 µM) of 0.0887. For the same cell line, the relative viability ([1]; first compound 0.253 µM) was 0.103, the relative viability ([1]; first compound 0.8 µM) was 0.0911 and the relative viability ([1]; first compound 2.53 µM) was 0.117. The relative viability ([1]; first compound 8 µM) was 0.114.

Work on EKVX yielded a relative viability (Masitinib + Navitoclax; first compound 0.03162 µM) of 0.688, a relative viability (Masitinib + Navitoclax; first compound 0.1 µM) of 0.865 and a relative viability (Masitinib + Navitoclax; first compound 0.3162 µM) of 0.577. The relative viability (Masitinib + Navitoclax; first compound 1 µM) was 0.968, the relative viability (Masitinib + Trametinib; first compound 0.01 µM) was 0.38 and the relative viability (Masitinib + Trametinib; first compound 0.03162 µM) was 0.27. For the same cell line, the relative viability (Masitinib + Trametinib; first compound 0.1 µM) was 0.353, the relative viability (Masitinib + Trametinib; first compound 1 µM) was 0.249 and the relative viability ([2]; first compound 0.08 µM) was 0.31. For the same cell line, the relative viability ([2]; first compound 0.253 µM) was 0.585, the relative viability ([2]; first compound 0.8 µM) was 0.507 and the relative viability ([2]; first compound 2.53 µM) was 0.488. For the same cell line, the relative viability ([2]; first compound 8 µM) was 0.502, the relative viability ([1]; first compound 0.08 µM) was 0.941 and the relative viability ([1]; first compound 0.253 µM) was 0.726. It also gave a relative viability ([1]; first compound 0.8 µM) of 0.578, a relative viability ([1]; first compound 2.53 µM) of 0.733 and a relative viability ([1]; first compound 8 µM) of 0.75.

In the case of EMC-BAC-2, the relative viability (Masitinib + Navitoclax; first compound 0.01 µM) is reported as 1.08, the relative viability (Masitinib + Navitoclax; first compound 0.03162 µM) is reported as 0.962 and the relative viability (Masitinib + Navitoclax; first compound 0.1 µM) is reported as 1.16. It also gave a relative viability (Masitinib + Navitoclax; first compound 0.3162 µM) of 1.37, a relative viability (Masitinib + Navitoclax; first compound 1 µM) of 1.45 and a relative viability (Masitinib + Trametinib; first compound 0.01 µM) of 0.576. For the same cell line, the relative viability (Masitinib + Trametinib; first compound 0.1 µM) was 0.705, the relative viability (Masitinib + Trametinib; first compound 0.3162 µM) was 0.806 and the relative viability (Masitinib + Trametinib; first compound 1 µM) was 0.821. For the same cell line, the relative viability ([2]; first compound 0.08 µM) was 0.367, the relative viability ([2]; first compound 0.8 µM) was 0.579 and the relative viability ([2]; first compound 2.53 µM) was 0.343. It also gave a relative viability ([2]; first compound 8 µM) of 0.425, a relative viability ([1]; first compound 0.08 µM) of 0.888 and a relative viability ([1]; first compound 0.253 µM) of 0.993. The relative viability ([1]; first compound 0.8 µM) was 1, the relative viability ([1]; first compound 2.53 µM) was 0.948 and the relative viability ([1]; first compound 8 µM) was 0.879.

With EPLC-272H the relative viability (Masitinib + Navitoclax; first compound 0.01 µM) was 1.08, the relative viability (Masitinib + Navitoclax; first compound 0.03162 µM) was 1.13 and the relative viability (Masitinib + Navitoclax; first compound 0.1 µM) was 1.08. The relative viability (Masitinib + Navitoclax; first compound 0.3162 µM) was 1.23, the relative viability (Masitinib + Navitoclax; first compound 1 µM) was 1.06 and the relative viability (Masitinib + Trametinib; first compound 0.01 µM) was 0.28. For the same cell line, the relative viability (Masitinib + Trametinib; first compound 0.03162 µM) was 0.35, the relative viability (Masitinib + Trametinib; first compound 0.1 µM) was 0.376 and the relative viability (Masitinib + Trametinib; first compound 0.3162 µM) was 0.268. The relative viability (Masitinib + Trametinib; first compound 1 µM) was 0.237, the relative viability ([2]; first compound 0.08 µM) was 0.483 and the relative viability ([2]; first compound 0.253 µM) was 0.353. For the same cell line, the relative viability ([2]; first compound 0.8 µM) was 0.465, the relative viability ([2]; first compound 2.53 µM) was 0.292 and the relative viability ([2]; first compound 8 µM) was 0.639. The relative viability ([1]; first compound 0.08 µM) was 0.657, the relative viability ([1]; first compound 0.253 µM) was 0.711 and the relative viability ([1]; first compound 0.8 µM) was 0.623. The relative viability ([1]; first compound 2.53 µM) was 0.597 and the relative viability ([1]; first compound 8 µM) was 0.723.

H3255 gave a relative viability (Masitinib + Navitoclax; first compound 0.01 µM) of 0.441, a relative viability (Masitinib + Navitoclax; first compound 0.03162 µM) of 0.409 and a relative viability (Masitinib + Navitoclax; first compound 0.1 µM) of 0.496. The relative viability (Masitinib + Navitoclax; first compound 0.3162 µM) was 0.351, the relative viability (Masitinib + Navitoclax; first compound 1 µM) was 0.409 and the relative viability (Masitinib + Trametinib; first compound 0.01 µM) was 0.471. For the same cell line, the relative viability (Masitinib + Trametinib; first compound 0.03162 µM) was 0.619, the relative viability (Masitinib + Trametinib; first compound 0.1 µM) was 0.499 and the relative viability (Masitinib + Trametinib; first compound 0.3162 µM) was 0.565. The relative viability (Masitinib + Trametinib; first compound 1 µM) was 0.582, the relative viability ([2]; first compound 0.08 µM) was 0.758 and the relative viability ([2]; first compound 0.253 µM) was 0.723. For the same cell line, the relative viability ([2]; first compound 0.8 µM) was 0.65, the relative viability ([2]; first compound 2.53 µM) was 0.666 and the relative viability ([2]; first compound 8 µM) was 0.717. It also gave a relative viability ([1]; first compound 0.08 µM) of 0.895, a relative viability ([1]; first compound 0.253 µM) of 0.464 and a relative viability ([1]; first compound 0.8 µM) of 0.909. It also gave a relative viability ([1]; first compound 2.53 µM) of 0.822 and a relative viability ([1]; first compound 8 µM) of 0.875.

In the case of HARA, the relative viability (Masitinib + Navitoclax; first compound 0.01 µM) is reported as 1.16, the relative viability (Masitinib + Navitoclax; first compound 0.03162 µM) is reported as 1.06 and the relative viability (Masitinib + Navitoclax; first compound 0.1 µM) is reported as 1.2. The relative viability (Masitinib + Navitoclax; first compound 0.3162 µM) was 1.2, the relative viability (Masitinib + Navitoclax; first compound 1 µM) was 1.19 and the relative viability (Masitinib + Trametinib; first compound 0.01 µM) was 0.767. It also gave a relative viability (Masitinib + Trametinib; first compound 0.03162 µM) of 0.627, a relative viability (Masitinib + Trametinib; first compound 0.1 µM) of 0.946 and a relative viability (Masitinib + Trametinib; first compound 1 µM) of 0.897. For the same cell line, the relative viability ([2]; first compound 0.08 µM) was 0.492, the relative viability ([2]; first compound 0.253 µM) was 0.523 and the relative viability ([2]; first compound 0.8 µM) was 0.501. The relative viability ([2]; first compound 2.53 µM) was 0.391, the relative viability ([2]; first compound 8 µM) was 0.302 and the relative viability ([1]; first compound 0.08 µM) was 0.522. For the same cell line, the relative viability ([1]; first compound 0.253 µM) was 0.952, the relative viability ([1]; first compound 0.8 µM) was 0.848 and the relative viability ([1]; first compound 2.53 µM) was 0.769. The relative viability ([1]; first compound 8 µM) was 0.821.
